For assay [1], the target named is T1, Fatty acid synthase (Homo sapiens, UniProt P49327). In words: FAS thioesterase domain inhibitors, dose response, biochemical, endpoint fluorescence intensity, uHTS hits (AID 624327).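 Further: fluorescence from hydrolysis of an O-methyl fluorescein acyl ester substrate by the enzyme.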 It counts as functional.
For assay [2], the target named is Heat shock protein HSP 90-alpha (Homo sapiens, UniProt P07900). It counts as functional, organism-based.
The next assay deals with Beta Lactamase (Pseudomonas aeruginosa, UniProt Q932Y6). In words: beta-lactamase reporter inhibitor potency, dose response, artefact control for TLR9-MyD88 binding inhibitor project, BLA reporter cells, FRET fluorescence (AID 588341).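 Further: cell based assay in CHO-K1 cells stably expressing beta-lactamase.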 It counts as cell-based.
Chain of Beta Lactamase (Q932Y6 whole entry): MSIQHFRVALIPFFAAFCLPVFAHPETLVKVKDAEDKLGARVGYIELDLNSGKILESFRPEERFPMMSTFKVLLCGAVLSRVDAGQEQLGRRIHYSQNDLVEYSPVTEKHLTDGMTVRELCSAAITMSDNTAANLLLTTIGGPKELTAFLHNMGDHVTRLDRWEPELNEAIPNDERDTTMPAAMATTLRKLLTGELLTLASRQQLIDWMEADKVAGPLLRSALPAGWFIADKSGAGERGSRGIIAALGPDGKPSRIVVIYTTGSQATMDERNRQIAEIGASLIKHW
Assay [3] in a line: Shn3 3'UTR reporter inhibitors, dose response, cell-based, Clone20 osteoblasts, firefly luciferase, cherry-picked (AID 624132).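 Further: firefly luciferase luminescence from reporter carrying the Shn3 3'UTR in osteoblasts.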 It counts as functional.
Assay [4] has as its target T1, Fatty acid synthase. Briefly: FAS thioesterase domain inhibitors, dose response, biochemical, kinetic fluorescence intensity (AID 624326).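 Further: rate of fluorescence rise from hydrolysis of a fluorogenic O-methyl fluorescein ester substrate.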 It counts as functional.
Assay [5] in a line: control 3'UTR Renilla luciferase suppression, dose response, counter-screen for Shn3 inhibitor project, cell-based, Clone20-Shn3RL, cherry-picked (AID 624133). It counts as functional. (A counterscreen serves to expose hits that act by an unwanted route or on another target.)
Assay [6] can be described thus: HepG2 cell cytotoxicity, dose response, cytotoxicity control for Shn3 inhibitor project, CellTiter-Glo, cherry-picked (AID 624134). It counts as functional, cell-based. In general terms: In ATP-based viability assays light output follows the ATP content of the culture.
A further assay deals with CHO. Briefly: cytotoxicity in TLR9-MyD88 CHO cells, dose response, cytotoxicity control for TLR9-MyD88 binding inhibitor project, cell-based, luminescence (AID 588339).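 Further: CHO cells stably coexpressing TLR9 and MyD88 fusions from primary screen; compound exposure lasted 48 hours before viability readout.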 Type of assay: functional, hamster. Conditions: Cricetulus griseus.
The target of assay [7] is Beta-2 adrenergic receptor (Homo sapiens, UniProt P07550). Briefly: beta2AR agonists driving receptor internalization, dose response, cell-based, FAP fluorogen, flow cytometry, cherry pick 1 (AID 588763). It counts as functional.
Chain of Beta-2 adrenergic receptor (P07550 whole entry): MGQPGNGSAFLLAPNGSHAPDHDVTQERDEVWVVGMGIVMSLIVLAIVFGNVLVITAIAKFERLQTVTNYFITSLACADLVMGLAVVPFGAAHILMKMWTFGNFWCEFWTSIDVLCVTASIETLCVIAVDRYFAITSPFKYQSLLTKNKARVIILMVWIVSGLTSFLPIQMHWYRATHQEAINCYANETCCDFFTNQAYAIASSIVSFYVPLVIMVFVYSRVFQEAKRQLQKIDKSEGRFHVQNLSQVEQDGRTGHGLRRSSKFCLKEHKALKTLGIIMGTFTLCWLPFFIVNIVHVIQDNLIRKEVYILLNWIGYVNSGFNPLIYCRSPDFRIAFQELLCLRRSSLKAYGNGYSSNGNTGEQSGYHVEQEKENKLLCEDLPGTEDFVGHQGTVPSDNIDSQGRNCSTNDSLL
Assay [8] can be described thus: inhibitors of PGC1a acetylation in cells, dose response, cell-based, cherry-picked samples (AID 720514).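 Further: potency may reflect raised or lowered acetylation signal.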 Type of assay: functional.
A further assay has as its target Phospholipase A2 (Homo sapiens, UniProt P04054). Type of assay: functional.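 Further: confirmatory dose-response counterscreen on phospholipase A2, testing hits that came from an ultra-high-throughput screen for ATG4B inhibitors.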
The target of a further assay is Cysteine protease ATG4B (Homo sapiens, UniProt Q9Y4P1). It counts as functional.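 Further: Fluorescence-based dose-response confirmation assay measuring inhibition of ATG4B activity.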
Chain of Cysteine protease ATG4B (Q9Y4P1 whole entry): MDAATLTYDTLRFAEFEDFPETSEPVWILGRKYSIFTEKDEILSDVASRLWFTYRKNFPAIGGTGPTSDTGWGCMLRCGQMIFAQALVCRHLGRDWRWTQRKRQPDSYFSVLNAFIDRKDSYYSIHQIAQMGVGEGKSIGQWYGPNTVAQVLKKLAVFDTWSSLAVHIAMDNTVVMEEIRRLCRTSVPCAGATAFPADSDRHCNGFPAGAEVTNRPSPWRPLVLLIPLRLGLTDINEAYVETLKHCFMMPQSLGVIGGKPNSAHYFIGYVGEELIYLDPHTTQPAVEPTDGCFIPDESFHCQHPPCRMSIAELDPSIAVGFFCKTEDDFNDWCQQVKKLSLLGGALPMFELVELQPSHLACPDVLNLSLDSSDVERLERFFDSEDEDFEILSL
Assay [9] in a line: growth suppression of beta-catenin-knockout colon cells, dose response, cell-based, HCT116, human colon tumor (AID 1045).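 Further: HCT116 colon tumor cells with beta catenin knocked out; cells exposed to compound for 60 hours.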 It counts as functional.
Assay [10] is described as follows: growth suppression of PTEN-null colon cells, dose response, cell-based, HCT116 PTEN knockout (AID 1047).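 Further: HCT116 colon tumor cells with PTEN knocked out; cells exposed to compound for 60 hours before readout; potency for loss of cell viability measured by luminescence.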 It counts as functional.
Assay [11] has as its target T2, Zinc finger protein mex-5 (Caenorhabditis elegans, UniProt Q9XUB2).
T2 sequence (Q9XUB2 whole entry): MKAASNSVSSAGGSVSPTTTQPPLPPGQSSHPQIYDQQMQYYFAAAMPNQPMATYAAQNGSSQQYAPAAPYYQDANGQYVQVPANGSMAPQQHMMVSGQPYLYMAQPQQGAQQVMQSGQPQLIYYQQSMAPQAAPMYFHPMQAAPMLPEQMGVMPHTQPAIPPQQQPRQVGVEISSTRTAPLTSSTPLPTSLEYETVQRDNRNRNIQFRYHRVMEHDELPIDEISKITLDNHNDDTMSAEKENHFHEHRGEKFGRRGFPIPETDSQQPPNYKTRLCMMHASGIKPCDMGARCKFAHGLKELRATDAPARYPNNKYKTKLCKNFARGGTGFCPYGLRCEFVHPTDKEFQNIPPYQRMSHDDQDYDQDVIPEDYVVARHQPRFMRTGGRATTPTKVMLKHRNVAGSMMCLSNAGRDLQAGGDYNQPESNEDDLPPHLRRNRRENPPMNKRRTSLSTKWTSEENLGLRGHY
Briefly: MEX-5/TCR-2 RNA interaction inhibitors, dose response, biochemical, C. elegans, fluorescence polarization (AID 1960). For orientation: In fluorescence polarisation assays a small probe gives low polarisation when free and higher when bound to something large.

Assay [12] concerns the target T3, RNA-binding protein pos-1 (Caenorhabditis elegans, UniProt G5EF15).
T3 sequence (G5EF15 whole entry): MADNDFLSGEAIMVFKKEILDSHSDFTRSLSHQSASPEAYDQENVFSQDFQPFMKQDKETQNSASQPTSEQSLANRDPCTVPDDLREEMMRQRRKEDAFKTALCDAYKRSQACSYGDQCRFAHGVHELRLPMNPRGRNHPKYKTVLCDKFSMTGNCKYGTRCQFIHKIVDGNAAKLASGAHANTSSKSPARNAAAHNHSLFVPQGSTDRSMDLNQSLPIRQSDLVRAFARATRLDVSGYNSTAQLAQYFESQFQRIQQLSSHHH
In words: inhibitors of POS-1/mex-3 RNA binding, dose response, biochemical, fluorescence polarization (AID 1964).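 Further: purified POS-1 fused to maltose binding protein made in E. coli; potency of compounds blocking POS-1 binding to fluorescent RNA.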

The target of assay [13] is T4, Sentrin-specific protease 8 (Homo sapiens, UniProt Q96LD8).
T4 sequence (Q96LD8 whole entry): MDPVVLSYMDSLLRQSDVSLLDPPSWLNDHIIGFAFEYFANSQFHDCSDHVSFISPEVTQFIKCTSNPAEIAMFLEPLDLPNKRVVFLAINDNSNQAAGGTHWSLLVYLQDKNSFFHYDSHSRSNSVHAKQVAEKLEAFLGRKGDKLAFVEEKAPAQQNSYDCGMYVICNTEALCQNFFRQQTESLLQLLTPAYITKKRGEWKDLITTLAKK
In words: SENP8 protease inhibitors, SAR follow-up, biochemical, luminescence (AID 504501). It counts as functional.

The target in a further assay is T5, Caspase-3 (Homo sapiens, UniProt P42574).
T5 sequence (P42574 whole entry): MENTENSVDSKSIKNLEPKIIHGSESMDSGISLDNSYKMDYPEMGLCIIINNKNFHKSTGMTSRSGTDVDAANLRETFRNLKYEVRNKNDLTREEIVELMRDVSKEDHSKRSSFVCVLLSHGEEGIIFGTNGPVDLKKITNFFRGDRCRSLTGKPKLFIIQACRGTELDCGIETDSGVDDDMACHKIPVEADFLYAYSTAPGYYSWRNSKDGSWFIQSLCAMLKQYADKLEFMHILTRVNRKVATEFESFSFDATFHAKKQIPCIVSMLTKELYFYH
In words: SAR Analysis of small molecule inhibitors of Sentrin-specific proteases (SENPs) using a Caspase-3 Selectivity assay. [Related pubchem assays (depositor defined):AID2540, AID2599, AID434973, AID489001]. It counts as functional.

Assay [14] addresses T6, Sentrin-specific protease 7 (Homo sapiens, UniProt Q9BQF6).
T6 sequence (Q9BQF6 whole entry): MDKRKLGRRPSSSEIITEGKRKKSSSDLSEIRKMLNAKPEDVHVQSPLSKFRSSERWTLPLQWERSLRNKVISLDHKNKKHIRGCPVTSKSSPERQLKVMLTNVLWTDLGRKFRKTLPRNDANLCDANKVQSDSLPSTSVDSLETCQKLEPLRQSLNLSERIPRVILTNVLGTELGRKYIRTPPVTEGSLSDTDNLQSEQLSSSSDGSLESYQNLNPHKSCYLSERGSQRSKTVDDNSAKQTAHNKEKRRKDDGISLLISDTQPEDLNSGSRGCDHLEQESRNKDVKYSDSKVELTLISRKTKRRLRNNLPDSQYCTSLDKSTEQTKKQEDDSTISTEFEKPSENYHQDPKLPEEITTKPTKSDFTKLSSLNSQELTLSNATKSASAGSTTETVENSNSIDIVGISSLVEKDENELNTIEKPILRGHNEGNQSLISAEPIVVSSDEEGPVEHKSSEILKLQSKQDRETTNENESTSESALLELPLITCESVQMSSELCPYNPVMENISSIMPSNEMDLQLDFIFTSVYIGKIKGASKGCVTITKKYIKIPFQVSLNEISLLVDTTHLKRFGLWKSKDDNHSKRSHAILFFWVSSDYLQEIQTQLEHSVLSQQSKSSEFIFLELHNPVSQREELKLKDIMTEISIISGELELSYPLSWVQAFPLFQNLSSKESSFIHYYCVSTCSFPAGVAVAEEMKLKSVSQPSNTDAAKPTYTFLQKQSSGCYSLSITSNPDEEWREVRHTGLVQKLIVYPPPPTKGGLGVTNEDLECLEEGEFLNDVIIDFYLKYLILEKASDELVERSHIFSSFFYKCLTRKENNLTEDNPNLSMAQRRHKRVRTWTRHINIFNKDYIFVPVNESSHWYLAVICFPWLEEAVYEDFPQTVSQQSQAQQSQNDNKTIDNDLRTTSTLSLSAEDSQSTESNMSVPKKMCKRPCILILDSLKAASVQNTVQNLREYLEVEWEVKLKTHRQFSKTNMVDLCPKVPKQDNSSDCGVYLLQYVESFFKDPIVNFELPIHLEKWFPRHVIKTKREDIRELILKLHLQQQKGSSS
Briefly: SENP7 protease inhibitors, SAR follow-up, biochemical, luminescence (AID 504497). It counts as functional.

The target in assay [15] is T7, Sentrin-specific protease 6 (Homo sapiens, UniProt Q9GZR1).
T7 sequence (Q9GZR1 whole entry): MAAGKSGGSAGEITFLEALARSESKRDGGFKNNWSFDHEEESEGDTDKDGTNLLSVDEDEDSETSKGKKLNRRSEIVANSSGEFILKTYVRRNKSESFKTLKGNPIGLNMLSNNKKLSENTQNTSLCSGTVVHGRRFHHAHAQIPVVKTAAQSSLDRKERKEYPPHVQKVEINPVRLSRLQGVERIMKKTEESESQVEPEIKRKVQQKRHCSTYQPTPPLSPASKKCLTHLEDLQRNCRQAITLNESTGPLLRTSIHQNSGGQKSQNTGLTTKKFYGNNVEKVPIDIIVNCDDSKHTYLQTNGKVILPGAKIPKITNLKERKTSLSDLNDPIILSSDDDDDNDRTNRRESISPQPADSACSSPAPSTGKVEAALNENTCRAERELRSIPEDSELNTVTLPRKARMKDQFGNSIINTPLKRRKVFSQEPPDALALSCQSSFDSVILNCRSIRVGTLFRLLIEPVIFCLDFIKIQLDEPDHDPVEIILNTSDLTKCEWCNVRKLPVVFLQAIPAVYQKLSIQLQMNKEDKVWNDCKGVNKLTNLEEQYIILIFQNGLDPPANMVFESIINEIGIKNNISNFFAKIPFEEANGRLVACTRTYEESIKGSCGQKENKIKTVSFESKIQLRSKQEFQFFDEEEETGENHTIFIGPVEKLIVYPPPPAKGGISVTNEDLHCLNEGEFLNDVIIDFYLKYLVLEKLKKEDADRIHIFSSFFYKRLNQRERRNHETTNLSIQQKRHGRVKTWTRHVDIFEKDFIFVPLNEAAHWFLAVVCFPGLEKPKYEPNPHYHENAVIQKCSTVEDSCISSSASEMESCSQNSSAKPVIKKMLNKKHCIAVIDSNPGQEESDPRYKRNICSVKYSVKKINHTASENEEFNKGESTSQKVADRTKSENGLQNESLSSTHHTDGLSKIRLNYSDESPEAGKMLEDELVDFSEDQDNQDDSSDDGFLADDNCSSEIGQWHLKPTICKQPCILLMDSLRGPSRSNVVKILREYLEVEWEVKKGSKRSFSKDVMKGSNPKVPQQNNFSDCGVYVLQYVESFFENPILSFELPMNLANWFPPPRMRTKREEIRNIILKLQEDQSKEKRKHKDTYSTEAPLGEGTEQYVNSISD
Briefly: SAR Analysis of small molecule inhibitors of Sentrin-specific protease 6 (SENP6) using a Luminescent assay. [Related pubchem assays (depositor defined):AID2582, AID2599]. It counts as functional.

Assay [16] deals with T4, Sentrin-specific protease 8. In words: SENP8 protease inhibitors, SAR follow-up, biochemical, luminescence, set 2 (AID 588601). It counts as functional.
Assay [17] deals with T7, Sentrin-specific protease 6. Briefly: SENP6 protease inhibitors, SAR follow-up, biochemical, luminescence, set 2 (AID 588598). Type of assay: functional.
The target of assay [18] is T6, Sentrin-specific protease 7. Briefly: SENP7 protease inhibitors, SAR follow-up, biochemical, luminescence, set 2 (AID 588600). It counts as functional.

The source of these data is ChEMBL document CHEMBL1201862, “PubChem BioAssay data set” (2004).

By IC50 is commonly meant the point on the concentration scale where inhibition reaches its midpoint. In general, AC50 refers to the concentration at which the activity in the assay is half-maximal. For orientation: EC50 means the midpoint of the concentration-response curve.

Counter-ions that a name gives are not always drawn. The source made the active and inactive calls. Some results are limits rather than exact numbers.

Chain of Phospholipase A2 (P04054 whole entry): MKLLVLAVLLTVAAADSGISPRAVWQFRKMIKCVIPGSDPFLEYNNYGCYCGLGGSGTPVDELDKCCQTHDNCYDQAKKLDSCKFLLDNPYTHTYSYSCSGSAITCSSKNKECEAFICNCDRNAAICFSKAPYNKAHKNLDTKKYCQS
T1 sequence (P49327 whole entry, the tested form may be a part): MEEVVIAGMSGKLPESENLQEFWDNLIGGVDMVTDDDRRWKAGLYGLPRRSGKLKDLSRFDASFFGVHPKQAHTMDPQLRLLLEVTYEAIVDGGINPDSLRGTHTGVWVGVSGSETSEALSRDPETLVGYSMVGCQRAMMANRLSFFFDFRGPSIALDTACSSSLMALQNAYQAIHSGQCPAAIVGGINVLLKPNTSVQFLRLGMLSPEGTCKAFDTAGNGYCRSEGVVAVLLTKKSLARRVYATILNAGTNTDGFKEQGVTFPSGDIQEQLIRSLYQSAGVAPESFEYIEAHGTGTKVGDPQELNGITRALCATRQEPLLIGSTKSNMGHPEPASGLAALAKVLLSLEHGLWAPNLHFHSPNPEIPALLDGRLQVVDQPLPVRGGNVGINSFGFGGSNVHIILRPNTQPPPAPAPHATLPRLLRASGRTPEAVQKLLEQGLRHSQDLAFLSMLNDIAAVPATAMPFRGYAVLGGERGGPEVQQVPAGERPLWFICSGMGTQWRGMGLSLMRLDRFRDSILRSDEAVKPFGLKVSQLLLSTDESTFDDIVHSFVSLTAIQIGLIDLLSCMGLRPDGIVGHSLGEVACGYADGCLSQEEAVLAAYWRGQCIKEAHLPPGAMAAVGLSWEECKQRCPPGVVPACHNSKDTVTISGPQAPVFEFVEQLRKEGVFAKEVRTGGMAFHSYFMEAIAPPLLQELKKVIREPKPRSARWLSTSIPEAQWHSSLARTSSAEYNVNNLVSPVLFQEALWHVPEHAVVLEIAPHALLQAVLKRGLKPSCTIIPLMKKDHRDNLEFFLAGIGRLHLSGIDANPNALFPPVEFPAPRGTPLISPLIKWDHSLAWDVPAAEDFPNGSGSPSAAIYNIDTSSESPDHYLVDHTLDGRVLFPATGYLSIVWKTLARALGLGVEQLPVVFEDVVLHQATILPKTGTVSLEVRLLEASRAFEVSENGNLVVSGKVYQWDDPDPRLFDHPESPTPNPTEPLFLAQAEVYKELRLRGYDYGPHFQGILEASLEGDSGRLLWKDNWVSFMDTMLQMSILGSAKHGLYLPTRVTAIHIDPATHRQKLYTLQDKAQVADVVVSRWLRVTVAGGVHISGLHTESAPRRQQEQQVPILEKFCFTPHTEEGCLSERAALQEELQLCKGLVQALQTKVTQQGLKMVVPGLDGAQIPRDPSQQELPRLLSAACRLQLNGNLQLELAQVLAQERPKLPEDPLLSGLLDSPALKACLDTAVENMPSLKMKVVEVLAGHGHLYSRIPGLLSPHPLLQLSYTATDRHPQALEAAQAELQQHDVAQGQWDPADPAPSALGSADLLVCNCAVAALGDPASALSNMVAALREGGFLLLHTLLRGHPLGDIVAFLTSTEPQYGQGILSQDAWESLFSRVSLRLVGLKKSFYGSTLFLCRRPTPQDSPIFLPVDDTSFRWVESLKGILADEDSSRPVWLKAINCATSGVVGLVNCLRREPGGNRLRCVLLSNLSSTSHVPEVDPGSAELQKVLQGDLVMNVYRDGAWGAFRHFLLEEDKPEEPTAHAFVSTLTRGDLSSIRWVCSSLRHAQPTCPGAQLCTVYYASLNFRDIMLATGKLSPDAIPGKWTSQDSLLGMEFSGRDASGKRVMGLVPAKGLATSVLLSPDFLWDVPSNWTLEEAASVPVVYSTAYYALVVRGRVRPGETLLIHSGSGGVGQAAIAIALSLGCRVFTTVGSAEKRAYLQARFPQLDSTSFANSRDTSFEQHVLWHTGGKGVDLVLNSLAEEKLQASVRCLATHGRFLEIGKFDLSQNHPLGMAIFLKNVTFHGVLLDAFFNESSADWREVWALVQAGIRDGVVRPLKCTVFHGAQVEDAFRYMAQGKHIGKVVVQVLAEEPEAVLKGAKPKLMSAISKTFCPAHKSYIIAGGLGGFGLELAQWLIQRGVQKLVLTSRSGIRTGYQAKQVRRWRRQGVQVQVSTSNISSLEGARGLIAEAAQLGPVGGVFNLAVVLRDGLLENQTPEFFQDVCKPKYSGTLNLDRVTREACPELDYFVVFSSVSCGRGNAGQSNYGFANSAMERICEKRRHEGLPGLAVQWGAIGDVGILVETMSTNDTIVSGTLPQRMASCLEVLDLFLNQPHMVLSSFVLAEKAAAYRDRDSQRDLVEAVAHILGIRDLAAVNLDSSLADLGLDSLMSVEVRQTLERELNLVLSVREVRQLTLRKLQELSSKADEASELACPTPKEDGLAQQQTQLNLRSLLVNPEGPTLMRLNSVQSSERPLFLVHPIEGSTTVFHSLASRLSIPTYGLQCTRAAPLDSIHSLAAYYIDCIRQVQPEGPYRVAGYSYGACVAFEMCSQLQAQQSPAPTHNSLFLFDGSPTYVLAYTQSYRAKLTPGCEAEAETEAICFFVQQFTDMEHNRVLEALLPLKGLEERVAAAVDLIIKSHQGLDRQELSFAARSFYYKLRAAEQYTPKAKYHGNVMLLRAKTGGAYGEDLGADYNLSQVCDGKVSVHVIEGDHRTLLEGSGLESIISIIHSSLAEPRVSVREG

As to `CCCNC(=O)c1nnsc1S(=O)(=O)c1ccc(Cl)cc1`, the IC50 was 12.7 µM (active) at Fatty acid synthase [1], 16.3 µM (inactive) at Beta Lactamase, 10.4 µM (active) at Fatty acid synthase [4] and 2.45 µM (active) with CHO. Further, the concentration at half-maximal activity (AC50) was 0.602 µM (active) in assay [2]; 3.63 µM (active) in [3]; 2.88 µM (active) in assay [5]; 16.4 µM (active) in assay [6]; 11.7 µM (active) in [8]. Besides, in [7], the EC50 is 9.54 µM (active).

Turning to `Fc1ccc(CNC(=S)NCc2ccccc2)cc1`, the results for the IC50 on Phospholipase A2 and at Cysteine protease ATG4B were 10.6 µM (active) and 18.4 µM (active), respectively.

Regarding `CCC(NC(C)C)C(O)c1ccc(O)c(O)c1` (stereo unspecified) [ISOETHARINE MESYLATE], the EC50 in assay [9] is 20.7 µM (active); in [10], 24.1 µM (active); in [7], 3.84 µM (active); in assay [11], 125 µM (active); in assay [12], > 300 µM (not active).

With `COc1ccc(C(CC(=O)NCc2ccccc2)C(C)C)cc1` (stereo unspecified), the concentration for half-maximal inhibition (IC50) is 7.25 µM (active) at Phospholipase A2 and 8.14 µM (active) on Cysteine protease ATG4B.

For `O=C(Nc1nc2ccccc2s1)c1cc2ccccc2s1`, the IC50 in assay [13] was 0.66 µM (active); at Caspase-3, 0.51 µM (active); in assay [14], 0.49 µM (active); in assay [15], 0.67 µM (active); in assay [16], 0.543 µM (active); in assay [17] it was 0.58 µM (active). The 50% inhibitory concentration (IC50) in assay [18] was 0.589 µM (active).
